# In US10450306B2, “Isoxazole analogs as FXR agonists and methods of use thereof” (Enanta Pharmaceuticals, Inc., priority 2016, dated 2019):
# pEC50: −log10 of the molar value.
# Target: T1, human FXR (NR1H4) (Homo sapiens, UniProt Q96RI1)
# T1 construct: host or cells: CHO (Chinese hamster ovary) reporter cells
# T1 sequence (Q96RI1 1-486): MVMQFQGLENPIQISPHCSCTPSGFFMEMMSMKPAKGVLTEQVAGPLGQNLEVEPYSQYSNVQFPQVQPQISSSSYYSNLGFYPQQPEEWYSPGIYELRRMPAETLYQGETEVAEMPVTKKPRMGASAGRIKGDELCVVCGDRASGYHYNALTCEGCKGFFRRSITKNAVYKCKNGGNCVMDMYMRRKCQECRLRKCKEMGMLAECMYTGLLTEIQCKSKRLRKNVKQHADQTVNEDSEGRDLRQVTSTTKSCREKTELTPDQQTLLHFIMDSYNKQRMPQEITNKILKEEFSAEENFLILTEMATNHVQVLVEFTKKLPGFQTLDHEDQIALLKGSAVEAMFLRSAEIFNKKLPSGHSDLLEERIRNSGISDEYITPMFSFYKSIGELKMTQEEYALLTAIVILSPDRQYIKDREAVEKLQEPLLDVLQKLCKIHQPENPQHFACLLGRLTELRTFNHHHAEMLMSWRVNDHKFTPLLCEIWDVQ
# Test: Human FXR (NR1H4) Assay: Gal4 promoter driven luciferase reporter transactivation in CHO cells (Indigo Bioscience kit IB00601); as to Efficacy (%): efficacy normalized to CDCA set as 100%
# Type: cell-based
# Details: for Emax: CHO, read-out: Efficacy (%); for pEC50: Human FXR (NR1H4) reporter assay, potency ranges
# Description: Human FXR (NR1H4) Assay Determination of a ligand mediated Gal4 promoter driven transactivation to quantify ligand binding mediated activation of FXR. FXR Reporter Assay kit purchased from Indigo Bioscience (Catalogue number: IB00601) to determine the potency and efficacy of compound developed by Enanta that can induce FXR activation. The principle application of this reporter assay system is to quantify functional activity of human FXR. The assay utilizes non-human mammalian cells, CHO (Chinese hamster ovary) cells engineered to express human NR1H4 protein (referred to as FXR). Reporter cells also incorporate the cDNA encoding beetle luciferase which catalyzes the substrates and yields photon emission. Luminescence intensity of the reaction is quantified using a plate-reading luminometer, Envision. Reporter Cells include the luciferase reporter gene functionally linked to an FXR responsive promoter. Thus, quantifying changes in luciferase expression in the treated reporter cells provides a sensitive surrogate measure of the changes in FXR activity. […] The assay is according to the manufacturer's instructions. In brief, the assay was performed in white, 96 well plates using final volume of 100 ul containing cells with different doses of compounds. Retrieve Reporter Cells from −80° C. storage. Perform a rapid thaw of the frozen cells by transferring a 10 ml volume of 37° C. cell recovery medium into the tube of frozen cells. Recap the tube of Reporter Cells and immediately place it in a 37° C. water bath for 5-10 minutes. Retrieve the tube of Reporter Cell Suspension from the water bath. Sanitize the outside surface of the tube with a 70% alcohol swab, and then transfer it into the cell culture hood. Dispense 90 μl of cell suspension into each well of the 96-well Assay Plate. Transfer the plate into 37° C. incubator, allowing the cells adherent to the bottom of the well. Dilute compounds in Dilution Plate (DP), and administrate to cells at Assay Plate (AP). DMSO content of the samples was kept at 0.2%. Cells were incubated for additional 22 hours before luciferase activities were measured. Thirty minutes before intending to quantify FXR activity, remove Detection Substrate and Detection Buffer from the refrigerator and place them in a low-light area so that they may equilibrate to room temperature. Remove the plate's lid and discard all media contents by ejecting it into an appropriate waste container. Gently tap the inverted plate onto a clean absorbent paper towel to remove residual droplets. Cells will remain tightly adhered to well bottoms. Add 100 ul of luciferase detection reagent to each well of the assay plate. Allow the assay plate to rest at room temperature for at least 5 minutes following the addition of LDR. Set the instrument (Envision) to perform a single 5 second “plate shake” prior to reading the first assay well. Read time may be 0.5 second (500 mSec) per well.
SMILES,Emax [%],pEC50
Cc1cc(C(=O)NS(=O)(=O)C2(C)CC2)cc2sc(N3C4CCC3CC(NCc3c(-c5c(Cl)cccc5Cl)noc3C3CC3)C4)nc12 (centres unmarked) [Example 400-29],118,> 9.00
CN(C)S(=O)(=O)NC(=O)c1ccc2nc(N3CCN(Cc4c(-c5c(Cl)cccc5Cl)noc4C4CC4)CC3)sc2c1 [Example 281],171,7.00 to 9.00
CC(C)Oc1cc(C(=O)NS(=O)(=O)C2CC2)cc2sc(N3CCC(NCc4c(-c5c(Cl)cccc5Cl)noc4C4CC4)CC3)nc12 [Example 400-3],104,7.00 to 9.00
CN(C)S(=O)(=O)NC(=O)c1ccc2nc(N3C4CCC3CC(NCc3c(-c5c(Cl)cccc5Cl)noc3C3CC3)C4)sc2c1 (centres unmarked) [Example 283],246,< 6.00
CC1(S(=O)(=O)NC(=O)c2cc(F)c(N3C4CCC3CC(NCc3c(-c5ccccc5OC(F)(F)F)noc3C3CC3)C4)c(F)c2)CC1 (centres unmarked) [Example 900-12],67,7.00 to 9.00
CC(C)Oc1cc(C(=O)O)cc2sc(N3C4CCC3CC(NCc3c(-c5c(Cl)cccc5Cl)noc3C3CC3)C4)nc12 (centres unmarked) [Example 200-14],93.5,> 9.00
O=C(NS(=O)(=O)N1CCCCC1)c1cc2sc(N3C4CCC3CC(NCc3c(-c5c(Cl)cccc5Cl)noc3C3CC3)C4)nc2cc1F (centres unmarked) [Example 400-24],88.2,> 9.00
O=C(O)c1ccc2nc(N3[C@@H]4CC[C@H]3C[C@H](NCc3c(-c5c(Cl)cccc5Cl)noc3C3CC3)C4)sc2c1 [Example 178],108,< 6.00
O=C(O)c1ccc2nc(N3CCC(NCc4c(-c5c(Cl)cccc5Cl)noc4C4CC4)CC3)sc2c1 [Example 174],132,7.00 to 9.00
CC(C)S(=O)(=O)NC(=O)c1ccc2nc(N3C4CCC3CC(NCc3c(-c5c(Cl)cccc5Cl)noc3C3CC3)C4)sc2c1 (centres unmarked) [Example 237],226,7.00 to 9.00
O=C(NS(=O)(=O)C1CC1)c1ccc2nc(N3CCC(NCc4c(-c5ccccc5OC(F)(F)F)noc4C4CC4)CC3)sc2c1 [Example 791],63,< 6.00
O=C(NS(=O)(=O)c1nccs1)c1ccc2nc(N3C4CCC3CC(NCc3c(-c5c(Cl)cccc5Cl)noc3C3CC3)C4)sc2c1 (centres unmarked) [Example 268],129,6.00 to 7.00
O=C(NS(=O)(=O)C1CC1)c1cnc2nc(N3C4CCC3CC(NCc3c(-c5ccccc5OC(F)(F)F)noc3C3CC3)C4)sc2n1 (centres unmarked) [Example 695],75,7.00 to 9.00
O=C(NS(=O)(=O)C1CC1)c1cc(F)c2nc(N3CCC(NCc4c(-c5c(Cl)cccc5Cl)noc4C4CC4)CC3)sc2c1 [Example 400-9],37.5,6.00 to 7.00
CC(C)Oc1cc(C(=O)NS(=O)(=O)C2CC2)cc2sc(N3CCC(NCc4c(-c5ccccc5OC(F)(F)F)noc4C4CC4)CC3)nc12 [Example 900-5],68.5,6.00 to 7.00
COC(=O)c1cc(C2CC2)c2nc(N3C4CCC3CC(NCc3c(-c5c(Cl)cccc5Cl)noc3C3CC3)C4)sc2c1 (centres unmarked) [Example 200-29],94,7.00 to 9.00
O=C(O)c1cc(F)c(N2C3CCC2CC(NCc2c(-c4ccccc4OC(F)(F)F)noc2C2CC2)C3)c(F)c1 (centres unmarked) [Example 646],105,7.00 to 9.00
COC(=O)c1cc2sc(N3C4CCC3CC(NCc3c(-c5c(Cl)cccc5Cl)noc3C3CC3)C4)nc2cc1Br (centres unmarked) [Example 200-19],50.5,7.00 to 9.00
CC1(S(=O)(=O)NC(=O)c2ccc3nc(N4C5CCC4CC(NCc4c(-c6ccccc6C(F)(F)F)noc4C4CC4)C5)oc3c2)CC1 (centres unmarked) [Example 1425],74,6.00 to 7.00
CCOc1cc(C(=O)O)cc2sc(N3C4CCC3CC(NCc3c(-c5c(Cl)cccc5Cl)noc3C3CC3)C4)nc12 (centres unmarked) [Example 200-10],92.5,> 9.00

SMILES,Emax [%],pEC50
O=C(O)c1ccc2nc(N3C4CCC3CC(NCc3c(-c5ccccc5OC(F)(F)F)noc3C3CC3)C4)ccc2c1 (centres unmarked) [Example 514],100,7.00 to 9.00
Cc1cc(C(=O)O)cc2sc(N3C4CCC3CC(NCc3c(-c5c(Cl)cccc5Cl)noc3C3CC3)C4)nc12 (centres unmarked) [Example 8],109,> 9.00
COC(=O)c1ccc2nc(N3C4CCC3CC(NCc3c(-c5c(Cl)cccc5Cl)noc3C3CC3)C4)sc2c1-c1ccccc1 (centres unmarked) [Example 200-25],58.5,7.00 to 9.00
COC(=O)c1cc(OC(C)C)c2nc(N3C4CCC3CC(NCc3c(-c5c(Cl)cccc5Cl)noc3C3CC3)C4)sc2c1 (centres unmarked) [Example 200-13],96,> 9.00
O=C(O)c1ccc2nc(N3C4CCC3CC(NCc3c(-c5c(F)cccc5F)noc3C3CC3)C4)sc2c1 (centres unmarked) [Example 1411],94.7,7.00 to 9.00
O=C(NS(=O)(=O)c1ccccc1)c1ccc2nc(N3C4CCC3CC(NCc3c(-c5c(Cl)cccc5Cl)noc3C3CC3)C4)sc2c1 (centres unmarked) [Example 257],203,7.00 to 9.00
CCOc1cc(C(=O)NS(=O)(=O)C2(C)CC2)cc2sc(N3C4CCC3CC(NCc3c(-c5c(Cl)cccc5Cl)noc3C3CC3)C4)nc12 (centres unmarked) [Example 400-15],104,> 9.00
CN(Cc1c(-c2c(Cl)cccc2Cl)noc1C1CC1)[C@H]1C[C@H]2CC[C@@H](C1)N2c1nc2ccc(C(=O)NS(=O)(=O)C3CC3)cc2s1 [Example 292],212,7.00 to 9.00
O=C(NS(=O)(=O)N1CCCCC1)c1cc(OC(F)F)c2nc(N3C4CCC3CC(NCc3c(-c5c(Cl)cccc5Cl)noc3C3CC3)C4)sc2c1 (centres unmarked) [Example 328],146,> 9.00
O=C(NS(=O)(=O)N1CCCCC1)c1cc(F)c2nc(N3C4CCC3CC(NCc3c(-c5c(Cl)cccc5Cl)noc3C3CC3)C4)sc2c1 (centres unmarked) [Example 300],143,> 9.00
O=CC1(S(=O)(=O)NC(=O)c2cc(F)c3nc(N4C5CCC4CC(NCc4c(-c6c(Cl)cccc6Cl)noc4C4CC4)C5)sc3c2)CC1 (centres unmarked) [Example 299],154,7.00 to 9.00
COC(=O)c1ccc2nc(N3C4CCC3CC(N(C)Cc3c(-c5c(Cl)cccc5Cl)noc3C3CC3)C4)sc2c1 (centres unmarked) [Example 179],148,6.00 to 7.00
O=C(NS(=O)(=O)C1CC1)c1ccc2nc(N3C4CCC3CC(NCc3c(-c5ccccc5OC(F)(F)F)noc3C3CC3)C4)ccc2c1 (centres unmarked) [Example 900-15],82.5,7.00 to 9.00
CC1(S(=O)(=O)NC(=O)c2cc3sc(N4C5CCC4CC(NCc4c(-c6c(Cl)cccc6Cl)noc4C4CC4)C5)nc3c3ccccc23)CC1 (centres unmarked) [Example 400-33],91,> 9.00
COC(=O)c1ccc2nc(N3C4CCC3CC(NCc3c(-c5c(Cl)cccc5Cl)noc3C3CC3)C4)oc2c1 (centres unmarked) [Example 19],78,6.00 to 7.00
O=C(NS(=O)(=O)C1CC1)c1ccc2nc(N3C4CCC3CC(NCc3c(-c5ccccc5C(F)(F)F)noc3C3CC3)C4)oc2c1 (centres unmarked) [Example 1424],148,7.00 to 9.00
O=C(NCCS(=O)(=O)O)c1cc(F)c2nc(N3C4CCC3CC(NCc3c(-c5c(Cl)cccc5Cl)noc3C3CC3)C4)sc2c1 (centres unmarked) [Example 200-1],10,7.00 to 9.00
CC(C)Oc1cc(C(=O)O)cc2sc(N3C4CCC3CC(NCc3c(-c5ccccc5C(F)(F)F)noc3C3CC3)C4)nc12 (centres unmarked) [Example 1401],125,6.00 to 7.00
CC1(S(=O)(=O)NC(=O)c2ccc3nc(N4C5CCC4CC(NCc4c(-c6ccccc6OC(F)(F)F)noc4C4CC4)C5)sc3c2)CC1 (centres unmarked) [Example 702],113,7.00 to 9.00
COC(=O)c1cc(F)c2nc(N3C4CCC3CC(NCc3c(-c5ccccc5OC(F)(F)F)noc3C3CC3)C4)sc2c1 (centres unmarked) [Example 403],61,7.00 to 9.00
